Results on 11 molecules are retold here after ChEMBL document CHEMBL1201862, “PubChem BioAssay data set” (2004).

Holding throughout (assay): growth of human tumour cells (NCI), 48 h
The test system of assay [1] is LOX IMVI.
Assay [2] deals with SF-295.
The test system of assay [3] is Malme-3M.
The test system of assay [4] is SF-539.
In assay [5] the test system is OVCAR-4.
The subject of assay [6] is UACC-257.
For assay [7], the system named is TK-10.
Assay [8] relates to COLO 205.
Assay [9] has as its system SK-MEL-28.
The subject of assay [10] is A498.
The subject of assay [11] is SF-268.
For assay [12], the system named is HOP-62.
Assay [13] relates to NCI/ADR-RES.
The test system of assay [14] is HCT-15.
Assay [15] concerns MCF7.
The test system of assay [16] is HCC 2998.
Assay [17] has as its system Hs-578T.
Assay [18] relates to MDA-MB-435.
Assay [19] concerns HOP-92.
The test system of assay [20] is EKVX.

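These data come from cells grown in 96-well plates and exposed to compound for 48 hours at five concentrations. The concentration for 50% growth inhibition is given as GI50.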 The source made the active and inactive calls. Rule as the data show it: active = GI50 up to about 1.1 µM and inactive = higher.

Regarding `Cc1c(/N=N/c2ccccc2)c(C)n(C2OC(CO)C(O)C(O)C2O)c(=S)c1C#N` (stereo not given), the GI50 in assay [1] was 22.6 µM (inactive); in assay [2], 34.5 µM (inactive); in assay [3] it was 32.6 µM (inactive); in assay [4] it was 24.1 µM (inactive); in assay [5], 45.8 µM (inactive); in [6] it was 33.2 µM (inactive). Moreover, the GI50 in assay [7] is 27 µM (inactive); in [8], 42 µM (inactive); in assay [9], 32.7 µM (inactive); in [10], 34.9 µM (inactive); in [11], 17 µM (inactive); in [12], 25.5 µM (inactive). Moreover, the GI50 in assay [13] was 42.4 µM (inactive); in assay [14], 28.9 µM; in [15], 22.8 µM (inactive); in assay [16], 21.8 µM (inactive); in assay [17], 1 µM (active); in assay [18], 13.1 µM (inactive). Further, the GI50 in assay [19] was 16.6 µM (inactive).

On to `CCCCCCCCCc1c(O)c(O)c(CCCCCCCCC)c(CCCCCCCCC)c1CCCCCCCCC`, for which the GI50 in [1] is > 100 µM (inactive); in [2], > 100 µM (inactive); in assay [3], 96.8 µM (inactive); in [4], > 100 µM (inactive); in assay [5], > 100 µM (inactive); in assay [6], > 100 µM (inactive). The GI50 in [7], in assay [8], in [9], in assay [10], in assay [11] and in assay [12] was > 100 µM (inactive) throughout. For the same molecule, the GI50 in assay [13] was > 100 µM (inactive); in assay [14], greater than 100 µM; in assay [15], 8.18 µM (inactive); in assay [16], > 100 µM (inactive); in [17], > 100 µM (inactive); in [18], 47.2 µM (inactive). Further, the GI50 in [20] was > 100 µM (inactive).

On to `COc1ccc(-n2c(C)nc3ccc(NC4OC(COC(C)=O)C(OC(C)=O)C(OC(C)=O)C4OC(C)=O)cc3c2=O)cc1` (stereo not given), for which the GI50 in [1] is 28.5 µM (inactive); in assay [2] it was > 100 µM (inactive); in assay [3] it was 69.3 µM (inactive); in [5] it was > 100 µM (inactive); in assay [6], > 100 µM (inactive); in assay [7] it was 55.1 µM (inactive). The GI50 in assay [8] is 18.6 µM (inactive); in assay [9], 34 µM (inactive); in assay [10], > 100 µM (inactive); in assay [11], > 100 µM (inactive); in [12], > 100 µM (inactive); in assay [13], > 100 µM (inactive). Moreover, the GI50 is 76 µM in assay [14]; 45.9 µM (inactive) in assay [15]; > 100 µM (inactive) in [16]; 49.8 µM (inactive) in assay [17]; > 100 µM (inactive) in assay [18]; > 100 µM (inactive) in assay [20].

For `COc1ccc(-c2ncnc(-c3ccc(OC)c(OC)c3)n2)cc1OC`, the GI50 in assay [1], in assay [2], in assay [3], in assay [6], in [7] and in assay [8] was > 100 µM (inactive) each time. Further, the GI50 in assay [9], in assay [10], in [11], in assay [12], in assay [13] and in assay [15] was > 100 µM (inactive) in each case. The GI50 in [16], in [17], in assay [18], in assay [19] and in assay [20] was > 100 µM (inactive) throughout.

With `CCCNC(=S)N/N=C/c1cccc(C)n1`, the GI50 is 16.6 µM (inactive) in [1]; 32.8 µM (inactive) in assay [2]; 12.7 µM (inactive) in [3]; 25.2 µM (inactive) in assay [4]; 39.4 µM (inactive) in [5]; 33 µM (inactive) in assay [6]. Besides, the GI50 was 65.8 µM (inactive) in assay [7]; 3.94 µM (inactive) in assay [8]; 33 µM (inactive) in assay [10]; 25.6 µM (inactive) in assay [12]; 31 µM (inactive) in [13]; 18.5 µM in assay [14]. Besides, the GI50 in [15] is 41.2 µM (inactive); in assay [16], 19.5 µM (inactive); in assay [17] it was > 100 µM (inactive); in [18] it was 36.8 µM (inactive); in assay [19] it was 49 µM (inactive); in [20], 30.9 µM (inactive).

As for `CCN1CC2=C(OC(N)=C(C#N)C2c2ccc(Cl)cc2)/C(=C/c2ccc(Cl)cc2)C1` (stereo not given), the GI50 is 26.8 µM (inactive) in [1]; 30.1 µM (inactive) in assay [2]; 18.9 µM (inactive) in assay [3]; 32.4 µM (inactive) in [5]; 28.1 µM (inactive) in assay [6]; 21 µM (inactive) in [7]. Also, the GI50 is 52.4 µM (inactive) in assay [8]; 14.9 µM (inactive) in assay [9]; 16.5 µM (inactive) in [10]; 17.8 µM (inactive) in assay [11]; 18.2 µM (inactive) in [12]; 27.3 µM (inactive) in [13]. The GI50 in [14] is 45.8 µM; in [15], 30.5 µM (inactive); in assay [16], 26.7 µM (inactive); in [17], 22.6 µM (inactive); in assay [18], 43.3 µM (inactive); in [19] it was 0.527 µM (active). Also, the GI50 in [20] is 39.5 µM (inactive).

For `O=C1Nc2c(Cl)cc(Cl)cc2/C1=N/NC(=O)c1ccccc1O`, the GI50 is 12.9 µM (inactive) in [1]; 14.9 µM (inactive) in assay [2]; 13.6 µM (inactive) in assay [3]; 14.6 µM (inactive) in assay [4]; 13.4 µM (inactive) in assay [5]; 17.9 µM (inactive) in assay [6]. For the same molecule, the GI50 in [7] is 15.2 µM (inactive); in assay [8], 22.3 µM (inactive); in [9], 15.5 µM (inactive); in assay [10] it was 16.5 µM (inactive); in [12] it was 15.4 µM (inactive); in assay [13] it was 11.5 µM (inactive). The GI50 in assay [14] is 14.8 µM; in [15], 19.1 µM (inactive); in [16] it was 16.7 µM (inactive); in [17] it was 14.8 µM (inactive); in assay [18], 13.2 µM (inactive); in assay [19] it was 15 µM (inactive). Besides, the GI50 in assay [20] is 13.2 µM (inactive).

As for `CC(C)N/C(=N\C#N)NS(=O)(=O)c1cnccc1Nc1ccc(Cl)cc1`, the GI50 in assay [2], in assay [3], in assay [5], in [6], in assay [7] and in assay [8] was > 100 µM (inactive) throughout. Besides, the GI50 was > 100 µM (inactive) in assay [9]; > 100 µM (inactive) in assay [10]; > 100 µM (inactive) in assay [11]; > 100 µM (inactive) in assay [12]; > 100 µM (inactive) in [13]; greater than 100 µM in [14]. The GI50 in [15], in [16], in [17], in assay [18] and in assay [20] was > 100 µM (inactive) each time.

As for `N/C(=N\c1ccccc1Cl)c1ccccc1N`, the GI50 in assay [1], in assay [2], in assay [3], in assay [5], in assay [6] and in assay [7] was > 100 µM (inactive) throughout. The GI50 in [8], in assay [9], in assay [10], in [11], in assay [12] and in assay [13] was > 100 µM (inactive) each time. Further, the GI50 in assay [14] was greater than 100 µM; in [15], > 100 µM (inactive); in assay [16] it was > 100 µM (inactive); in assay [17] it was > 100 µM (inactive); in [18] it was > 100 µM (inactive); in assay [19], 16 µM (inactive). Besides, in [20], the GI50 is > 100 µM (inactive).

On to `N#C/C(N)=C(C#N)/N=C/Nc1ccc(N)cc1`, for which the GI50 in assay [1], in assay [2], in assay [3], in assay [4], in assay [5] and in assay [6] was > 100 µM (inactive) throughout. Moreover, the GI50 in assay [7], in assay [8], in assay [9], in [10], in assay [11] and in [12] was > 100 µM (inactive) each time. For the same molecule, the GI50 in assay [13] was > 100 µM (inactive); in assay [14] it was greater than 100 µM; in assay [15], 96.6 µM (inactive); in [16], > 100 µM (inactive); in [17], 95.3 µM (inactive); in [18], > 100 µM (inactive). Besides, the GI50 in [20] was > 100 µM (inactive).

For `N#CCCN(CCCCN(CCC#N)C(=O)Nc1ccccc1)C(=O)Nc1ccccc1`, the GI50 in assay [1], in assay [2], in assay [3], in [5], in [8] and in assay [9] was > 100 µM (inactive) in each case. In addition, the GI50 was > 100 µM (inactive) in [10]; > 100 µM (inactive) in assay [11]; > 100 µM (inactive) in assay [12]; > 100 µM (inactive) in assay [13]; greater than 100 µM in [14]; > 100 µM (inactive) in assay [15]. Besides, the GI50 in assay [16], in assay [17], in assay [18] and in assay [20] was > 100 µM (inactive) each time.
